This note sets out measurements from patent EP4342905B1, “1,N6-ETHENOADENOSINE DERIVATIVES FOR CANCER TREATMENT” (PHILIPPS-UNIVERSITÄT MARBURG, priority 2022, dated 2024).

In one data set the test system is Panc-1 cells. The experiment in a line: CellTiter-Glo Luminescent Cell Viability Assay, Panc-1 as PDAC model. The format is cell-based, human. Particulars: for IC50: Panc-1 cells, 72 h compound incubation, mean ± SD of at least three independent biological repeats; for activity against human Panc-1 pancreatic carcinoma cells compared to gemcitabine: comparison with gemcitabine. The method, then: The biological antitumor-activity of adenosine derivatives according to Formula I towards pancreatic ductal adenocarcinoma (PDAC) was evaluated by utilizing the established cell line Panc-1 as a PDAC model by applying the CellTiter-Glo® Luminescent Cell Viability Assay (Promega) after 72 h of compound incubation. Gemcitabine (100 µM) was used as a positive control. To analyze the cytotoxic efficacy in Panc-1 cells, dose-response curves were generated for each compound, starting from a concentration of 100 µM with serial dilution of 1:3. IC50 values are shown as arithmetic means of at least three independent biological repeats in following Table 1. Table 1: IC50-Values for the inhibition of PADC by adenosine and 1,N6-ethenoadenosine derivatives (with the respective standard deviations SD)
(In general: ATP-based viability assays read luminescence as a measure of living cells.)

A short description of data set [1]: logPOW determination, water/1-octanol distribution with UV/VIS readout. The format is physicochemical. Conditions: 1 h stirring, room temperature (23 °C), ratio of maximal UV absorbances; for logP at 1 h: read-out: logPOW (measured). The method, then:
All logPOW values reported herein are determined as follows: 2 mg of the compound to be measured are distributed in a 250 ml beaker between a two-phase mixture of water (50 ml) and 1-octanol (50 ml) and stirred for 1 h on a magnetic stirrer at room temperature (23 °C). After separation of the layers, 3 ml of each phase are removed and transferred into a 3.5 ml quartz cuvette (10 x 10 mm, 3500 µl; Hellma, Darmstadt, Germany) and measured on a UV/VIS spectrometer (Cary 50, Varian, Darmstadt, Germany). From the ratio of maximal absorbances in both layers (λmax) the corresponding log10POW values are determined.

The term IC50 denotes the concentration that gives 50% inhibition. A low value points to greater potency.

Each structure is given as a SMILES string. Structures can show the parent of a compound that is named as a salt.

With `CCCCCCCCCCCCCC1(CC)O[C@@H]2[C@H](O1)[C@@H](CO)O[C@H]2n1cnc2c(N)ncnc21` (stereo partly drawn) [Compound 2d, ((2R/2S,3aR,4R,6R,6aR)-6-(6-amino-9H-purin-9-yl)-2-ethyl-2-tridecyltetrahydrofuro[3,4-d][1,3]dioxol-4-yl)methanol], in the data set on Panc-1 cells, the IC50 amounted to 14.6 ± 0.69 µM and the “activity against human Panc-1 pancreatic carcinoma cells compared to gemcitabine” value (“activity … compared to gemcitabine” for short) is listed as “more active”. For the same compound, in data set [1], the “logPOW (measured)” value stood at 3.60.
Compound `CCCCCCCCC1(CCCCCCCC)O[C@@H]2[C@H](O1)[C@@H](CO)O[C@H]2n1cnc2c1ncn1ccnc21` [Compound 4b, ((3aR,4R,6R,6aR)-6-(3H-imidazo[2,1-i]purin-3-yl)-2,2-dioctyitetrahydrofuro[3,4-d][1,3]dioxol-4-yl)methanol Hydrochloride] returned an IC50 with Panc-1 cells (Homo sapiens) of 16.2 ± 1.35 µM. Moreover, the “activity … compared to gemcitabine” value in the data set with Panc-1 cells is reported as “more active”. Further, in data set [1], the “logPOW (measured)” value is on record as 2.57 and the logP at 1 h amounted to 2.57.
For the compound `CCCCCCCC1(CCCCCCC)O[C@@H]2[C@H](O1)[C@@H](CO)O[C@H]2n1cnc2c1ncn1ccnc21.Cl` [Compound 4a, ((3aR,4R,6R,6aR)-6-(3H-imidazo[2,1-i]purin-3-yl)-2,2-diheptyltetrahydrofuro[3,4-d][1,3]dioxol-4-yl)methanol Hydrochloride], the IC50 in the data set with Panc-1 cells (Homo sapiens) worked out at 17.1 ± 3.14 µM. For the same compound, in data set [1], the “logPOW (measured)” value stood at 2.40 and the logP at 1 h turned out to be 2.4.
For the compound `CCCCCCCCCCCCCC1(C)O[C@@H]2[C@H](O1)[C@@H](CO)O[C@H]2n1cnc2c(N)ncnc21.Cl` (stereo partly drawn) [Compound 4c, ((2R/2S,3aR,4R,6R,6aR)-6-(6-amino-9H-purin-9-yl)-2-methyl-2-tridecyltetrahydrofuro[3,4-d][1,3]dioxol-4-yl)methanol Hydrochloride], in the data set on Panc-1 cells, the IC50 was 30.6 ± 2.53 µM and the “activity … compared to gemcitabine” value is listed as “more active”. Also, in data set [1], the “logPOW (measured)” value came to 2.75.
Regarding `CCCCCCCCC1(CCCCCCCC)O[C@@H]2[C@H](O1)[C@@H](CO)O[C@H]2n1cnc2c(N)ncnc21` [Compound 2b, ((3aR,4R,6R,6aR)-6-(6-amino-9H-purin-9-yl)-2,2-dioctyltetrahydrofuro[3,4-d][1,3]dioxol-4-yl)methanol], in data set [1], the “logPOW (measured)” value was 3.86 and the logP at 1 h was 3.86.
Turning to `CCCCCCCCCCCCCC1(C)O[C@@H]2[C@H](O1)[C@@H](CO)O[C@H]2n1cnc2c(N)ncnc21` (stereo partly drawn) [Compound 2c, ((2R/2S,3aR,4R,6R,6aR)-6-(6-amino-9H-purin-9-yl)-2-methyl-2-tridecyltetrahydrofuro[3,4-d][1,3]dioxol-4-yl)methanol], the “logPOW (measured)” value in data set [1] came to 2.83.
Compound `CCCCCCCC1(CCCCCCC)O[C@@H]2[C@H](O1)[C@@H](CO)O[C@H]2n1cnc2c(N)ncnc21` [Compound 2a, ((3aR,4R,6R,6aR)-6-(6-amino-9H-purin-9-yl)-2,2-diheptyltetrahydrofuro[3,4-d][1,3]dioxol-4-yl)methanol] registered an IC50 in the data set on Panc-1 cells (Homo sapiens) of 14.58 ± 0.14 µM. Moreover, the “activity … compared to gemcitabine” value in the data set with Panc-1 cells is on record as “more active”. Also, in data set [1], the “logPOW (measured)” value came out at 2.82 and the logP at 1 h stood at 2.82.
As for `Cl.OC[C@H]1O[C@@H](n2cnc3c2ncn2ccnc32)[C@@H]2OC3(CCCCCCCCCCCCCC3)O[C@@H]21` [Compound 5, ((3a'R,4'R,6'R,6a'R)-4'-(3H-imidazo[2,1-i]purin-3-yl)tetrahydrospiro[cyclopentadecane-1,2'-furo[3,4-d][1,3]dioxol]-6'-yl)methanol Hydrochloride], in the data set on Panc-1 cells (Homo sapiens), the midpoint of inhibition, the IC50, lay at 23.1 ± 3.6 µM. Further, in data set [1], the “logPOW (measured)” value amounted to 1.67 and the logP at 1 h worked out at 1.67.
As for `CCCCCCCCCCCCCC1(CC)O[C@@H]2[C@H](O1)[C@@H](CO)O[C@H]2n1cnc2c1ncn1ccnc21.Cl` (stereo partly drawn) [Compound 4d, ((2R/2S,3aR,4R,6R,6aR)-6-(3H-imidazo[2,1-i]purin-3-yl)-2-ethyl-2-tridecyltetrahydrofuro[3,4-d][1,3]dioxol-4-yl)methanol Hydrochloride], in the data set on Panc-1 cells, the IC50 turned out to be 16 ± 4.31 µM. Further, the “logPOW (measured)” value in data set [1] came out at 2.29.
